Reference: patent US11350582B2, “Plant varieties by application of endocides” (Stephen F. Austin State University, priority 2015, dated 2022)
Read-outs that look alike come from different tables or passages of the source.

Experiments:
[1] = test system: Salvinia molesta; test: Greenhouse spray test on giant salvinia, living biomass; assay type: in vivo; details: for type of new growth / decrease of living biomass weight compared to the water control: 1% concentration; for type of new growth: compound alone; for decrease of living biomass weight compared to the water control: nine days after the treatment; for Living Biomass (mean ± s.d.): 10 mL spray on three type III plants per container, day nine
Method: General Experimental Procedure: Observations of giant salvinia growth in a greenhouse were performed under 28 different treatment conditions and control conditions with NANOPURE™ water or 0.5% DYNE-AMIC® (methyl esters of C16-C18 fatty acids, polyalkyleneoxide modified polydimethylsiloxane, and alkylphenol ethoxylate 99%, (Helena, Collierville, Tenn., United States)) (v:v).
Materials—4-hydroxybenzoic acid (>95%, HPLC analysis) and 3,4-dihydroxybenzoic acid (>95%) were isolated from S. molesta matter using the method as described in (Li, Wang et al. 2013). Ethylparaben (>99%) was purchased from a commercial source. Each of 4-hydroxybenzoic acid, 3,4-dihydroxybenzoic acid, and ethylparaben were prepared as 50 mL experimental solutions with NANOPURE™ water at the concentration of 0.5, 1.0, 1.5, and 2.0%, respectively. 0.5, 1.0, 1.5, and 2.0% 4-hydroxybenzoic acid, 3,4-dihydroxybenzoic acid, and ethylparaben with 0.5% surfactant DYNE-AMIC® was also prepared as 50 mL experimental solutions with NANOPURE™ water. Mixtures of 4-hydroxybenzoic acid with 3,4-dihydroxybenzoic acid (2:1, w:w) were prepared as 50 mL experimental solutions with NANOPURE™ water at the total concentration of 0.5, 1.0, and 1.5%, respectively. 3,4-dihydroxybenzoic acid was mixed with ethylparaben (2:1, w:w) and prepared as 50 mL experimental solution with NANOPURE™ water at the total concentration of 0.5, 1.0, and 1.5%, respectively.
Bioassay—For each treatment, a total of nine healthy and untreated living plants of S. molesta (type III, the biomass of three plants weighs approximately 10 g) were cultured in tap water in three plastic containers severing as three replications (14×15 cm, 0.68 L) with three plants each in a greenhouse (30° C. during the day time and 20° C. at night). The three plants in each of the three containers per treatment were sprayed with 10 mL NANOPURE™ water, 0.5% DYNE-AMIC®, or the experimental solution. Plant growth and survival status were documented and photographed in each treatment on day nine after the treatment. Pairwise comparisons for all treatments (including Control) in living biomass were made using Tukey test at alpha=0.05, which was done using SAS (SAS 9.4).

[2] = test system: Azolla caroliniana; test: Greenhouse spray test on Carolina mosquito fern; assay type: in vivo; details: 0.5% concentration; 10 mL spray; fifth day
Method: 4-Hydroxybenzoic and 3,4-dihydroxybenzoic acids were also tested against Carolina mosquito fern (Azolla caroliniana Willd.) (family Azollaceae). Six containers (14×15 cm, 0.68 L) with full cover of A. caroliniana were included in the tests: two without any treatments as controls, two were sprayed with 10 mL 0.5% 4-hydroxybenzoic acid each, and the others were sprayed with 10 mL 0.5% 3,4-dihydroxybenzoic acid each. Plant growth and survival status were documented and photographed in each treatment on the fifth day after the treatment.

[3] = test system: common species associate with S. molesta or species growing in nearby habitats; test: Field selectivity test on associated plant species (Example 16); assay type: in vivo; details: 0.5% with 0.25% soap; after two foliar applications
Method: General Experimental Procedure: Field experiments were conducted in an isolated pond in east Texas, United States. The pond was infested with type III S. molesta plants that formed dense mats along the edge and type I and II plants floating on the water surface. 4-hydroxybenzoic and 3,4-dihydroxybenzoic acids were purchased from a commercial source (99.9%, HPLC analysis). 500 m^2 of S. molesta was treated with 50 L 0.5% 4-hydroxybenzoic acid mixed with 0.25% DAWN® dish soap and 500 m^2 of S. molesta was treated with 50 L 0.5% 3,4-dihydroxybenzoic acid mixed with 0.25% DAWN® dish soap by Solo 433 motorized backpack sprayer. Plant growth and survival status were documented through photographs and the living biomass was sampled 48 hrs after each treatment. The experimental species for selectivity tests were mainly common species associate with S. molesta or species growing in nearby habitats. […]

[4] = test system: S. molesta; test: Phytotoxic analysis by pipet application on upper or lower leaf surface; assay type: in vivo, Salvinia molesta; details: Salvinia molesta, topical, 72 h
Method: General Experimental Procedure: 4-Hydroxybenzoic and 3,4-dihydroxybenzoic acids and 14 of their analogs were purchased commercially. Each of 16 compounds were prepared as 5 mL experimental solutions with NANOPURE™ water at 1% concentration. A total of 102 healthy and untreated living type III plants of S. molesta (approximately 10 g in fresh weight each) were cultured and tested in 17 plastic containers (23×23 cm, 2.37 L) with six plants in each container in a greenhouse (30° C. during the day time and 20° C. at night). The first container served as the controls without any treatment, the plants in each of the other 16 containers were treated by one of the 16 testing compounds, respectively. The plants in each container were randomly classified into two groups evenly. For each plant in the first group, 10 μL of 1% experimental solution was applied by pipet on the upper surface of each blade of the six pairs of large floating leaves close to the terminal bud. For each plant in the second group, 10 μL of 1% experimental solution was applied by pipet on the lower surface of each blade of the six pairs of large floating leaves close to the terminal bud. The leaf surfaces were examined for damage and analyzed 72 hrs after the treatments.

[5] = test system: S. molesta; test: Field test in an isolated pond, foliar spray with DAWN dish soap (Example 16); assay type: in vivo, Salvinia molesta; details: 0.5% with 0.25% soap; for small S. molesta plants dead: 48 h after the first treatment; for new growths induced (small plants): after first treatment; for fate of newly emerged type I plants: after the second treatments; for type III S. molesta plants on the top layer of the dense mats killed or severely injured: within 48 hrs of the first treatment
Method: General Experimental Procedure: Field experiments were conducted in an isolated pond in east Texas, United States. The pond was infested with type III S. molesta plants that formed dense mats along the edge and type I and II plants floating on the water surface. 4-hydroxybenzoic and 3,4-dihydroxybenzoic acids were purchased from a commercial source (99.9%, HPLC analysis). 500 m^2 of S. molesta was treated with 50 L 0.5% 4-hydroxybenzoic acid mixed with 0.25% DAWN® dish soap and 500 m^2 of S. molesta was treated with 50 L 0.5% 3,4-dihydroxybenzoic acid mixed with 0.25% DAWN® dish soap by Solo 433 motorized backpack sprayer. Plant growth and survival status were documented through photographs and the living biomass was sampled 48 hrs after each treatment. The experimental species for selectivity tests were mainly common species associate with S. molesta or species growing in nearby habitats. The species included one fern species, Carolina mosquito fern (A. caroliniana), and 11 herbaceous invasive aquatic species of angiosperms (flowering plants), namely, water hyacinth (Eichharnia crassipes (Mart.) Solms) of the family Pontederiaceae, least duckweed (Lemna minuta) and Brazilian watermeal (Wolffia brasillensis Weddell) of the family Araceae, and hydrilla (Hydrilla verticillata (L.f.) Royle) of the family Hydrocharitaceae, alligator weed (Alternanthera philoxeroides Griseb.) of the family Amaranthaceae, knotweed (Polygonum sp.) and redvine (Brunnichia ovata Walter) of the family Polygonaceae, water primrose (Ludwigia sp.) of the family Onagraceae, cattail (Typha latifolia L.) of the family Typhaceae, proliferating bulrush (Isolepis prolifera (Rottb.) R. Br.) of the family Cyperaceae, and coontail (Ceratophyllum demersum L.) of the family Ceratophyllaceae and four woody plants, namely, baldcypress (Taxodium distichum (L.) Rich.) of the family Cupressaceae, loblolly pine (Pinus taeda L.) of the family Pinaceae, Chinese tallow (T. sebifera), and buttonbush (Cephalanthus occidentalis L.) of the family Rubiaceae. At least 30 plants for each of 12 herbaceous species and three seedlings of each of the four woody species were sprayed during the treatment of S. molesta.

O=C(O)c1ccc(O)cc1 [4-Hydroxybenzoic acid]
type of new growth [1]: type I only | decrease of living biomass weight compared to the water control [1]: 85.5% | S. molesta plants eliminated ([1]; 2% concentration): 100% | Living Biomass (mean ± s.d.) ([1]; total concentration 0.5%): 20.1 g | Living Biomass (mean ± s.d.) ([1]; total concentration 1.0%): 4.3 g | Living Biomass (mean ± s.d.) ([1]; total concentration 1.5%): 2.3 g | Living Biomass (mean ± s.d.) ([1]; total concentration 2.0%): 0 g | A. caroliniana eliminated [2]: 100% | damage to other species tested for selectivity [3]: none of the other species tested for selectivity except A. caroliniana were severely damaged or killed | pest or weed control at 1 % ([4]; 10 μL of 1% solution per blade, lower surface, read-out: Inhibition (%) Lower leaf Application): 100% | pest or weed control at 1 % ([4]; 10 μL of 1% solution per blade, upper surface, read-out: Inhibition (%) Upper leaf Application): > 85% | small S. molesta plants dead [5]: > 90% | new growths induced (small plants) [5]: type I only | fate of newly emerged type I plants [5]: all newly emerged type I plants were killed | type III S. molesta plants on the top layer of the dense mats killed or severely injured [5]: 100%

O=C(O)c1ccc(O)c(O)c1 [3,4-dihydroxybenzoic acid]
type of new growth [1]: type I only | decrease of living biomass weight compared to the water control [1]: 76.5% | Living Biomass (mean ± s.d.) ([1]; total concentration 0.5%): 17.1 g | Living Biomass (mean ± s.d.) ([1]; total concentration 1.0%): 9.2 g | Living Biomass (mean ± s.d.) ([1]; total concentration 1.5%): 14.3 g | Living Biomass (mean ± s.d.) ([1]; total concentration 2.0%): 5.8 g | A. caroliniana eliminated [2]: 100% | damage to other species tested for selectivity [3]: none of the other species tested for selectivity except A. caroliniana were severely damaged or killed | pest or weed control at 1 % ([4]; read-out: Inhibition (%) Lower leaf Application, 10 μL of 1% solution per blade, lower surface): 72.2% | pest or weed control at 1 % ([4]; read-out: Inhibition (%) Upper leaf Application, 10 μL of 1% solution per blade, upper surface): > 85% | small S. molesta plants dead [5]: > 80% | new growths induced (small plants) [5]: type I only | fate of newly emerged type I plants [5]: all newly emerged type I plants were killed | type III S. molesta plants on the top layer of the dense mats killed or severely injured [5]: 100%
